Test results from patent publication US10053497B2, “Therapeutic epitopes and uses thereof” (OXFORD UNIVERSITY INNOVATION LIMITED, priority 2002, dated 2018).

Legend:
Assay type in all cases: cell-based, human
PBMC of coeliac patients = assay: ELISpot of the 652 peptides in patients challenged with wheat or rye; settings: for Dominance among individual peptide responses, rye: rye challenge; for Dominance among individual peptide responses, wheat: wheat challenge
Text: Dominance depends on wheat or rye. For wheat, dominant peptides include peptide numbers 89, 90 and 91 (referring to sequence numbers in Table 23) (SEQ ID NO: 195, SEQ ID NO:196 and SEQ ID NO:197 respectively). For rye, dominant peptides include peptide numbers 368, 369, 370, 371, and 372 (referring to sequence numbers in Table 23) (SEQ ID NO:474, SEQ ID NO:475, SEQ ID NO:476, SEQ ID NO:477 and SEQ ID NO:478 respectively).

[1] = tested on: PBMC of HLA-DQ2+ coeliac subjects; assay: IFNγ ELISpot, comprehensive gliadin epitope mapping in HLA-DQ2+ coeliac subjects after gluten challenge; settings: for Mean (SEM) bioactivity of deamidated peptides as % of P04722 E85 / Bioactivity as percent of response to P04722 77-93 QE85: 20 μg/ml; for Mean (SEM) bioactivity of deamidated peptides as % of P04722 E85: HLA-DQ2 coeliac subjects C01-5; for IFNg ELISpot response compared to P04722 77-93 QE85 (SEQ ID NO: 27): mean (SEM): peptides grouped by structure; for Bioactivity as percent of response to P04722 77-93 QE85: tTG-deamidated, median, HLA-DQ2 coeliac subjects
Method in brief: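 PBMC (2-8×10^5/well) from HLA-DQ2+ coeliac subjects on gluten-free diet were taken before and on day 6/7 after 3-day bread challenge. They were incubated overnight with 20mer peptides or pools (20 μg/ml each), ± tTG deamidation (tTG 64 μg/ml in wells), in RPMI/10% human AB serum. Net sfc/million minus blank; single-peptide responses as % of P04722 77-93 QE85.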

[2] = tested on: PBMC from coeliac disease subjects; assay: IFNγ ELISPOT with PBMC of coeliac disease subjects after bread/gluten challenge (agonist bioactivity of peptides)
[3] = tested on: PBMC from coeliac volunteers; assay: Antagonism of A-gliadin 57-73 QE65 IFNgamma ELISPOT response (simultaneous addition of peptide); settings: variant 50 μg/ml plus A-gliadin 57-73 QE65 10 μg/ml; n=5
Experimental: Simultaneous addition of peptide (50 μg/ml) or buffer and A-gliadin 57-73 QE65 (SEQ ID NO:2) (10 μg/ml) in IFNgamma ELISPOT using PBMC from coeliac volunteers 6 days after commencing 3 day gluten challenge (n=5). Results were expressed as response with peptide plus A-G 57-73 QE65 (mean of duplicates) as % response with buffer plus A-G 57-73 QE65 (mean of 20 replicates). (See Table 9).

[4] = tested on: PBMC of newly diagnosed coeliac subjects; assay: IFNγ ELISpot in newly diagnosed coeliac disease: duration of gluten free diet before gluten challenge

Substance | Dominance among individual peptide responses, rye (PBMC of coeliac patients) | Mean (SEM) bioactivity of deamidated peptides as % of P04722 E85 [1] | IFNg ELISpot response compared to P04722 77-93 QE85 (SEQ ID NO: 27): mean (SEM) [1] | further results
372: Table 23 20mer, SEQ ID NO:478 (PQQQFIQPQQPQQTYPQRPQ) [Peptide 372] | dominant |  |  | 
89: Table 23 20mer, SEQ ID NO: 195 (PQLPYPQPQLPYPQPQLPYP) [Peptide 89] |  | 94 (18) % | 94 (18) % | Dominance among individual peptide responses, wheat (PBMC of coeliac patients): dominant
369: Table 23 20mer, SEQ ID NO:475 (QQFPQTQQPQQPFPQPQQTF) [Peptide 369] | dominant |  |  | 
368: Table 23 20mer, SEQ ID NO:474 (QQFPQPQQPQQPFPQQPQQQ) [Peptide 368] | dominant | 14 (7) % |  | 
635: Table 23 20mer, homologue of 396, SEQ ID NO:741 (PLQPQQPFPQQPQQPFPQPQ) [Peptide 635] |  | 19 (5) % | 19 (5) % | Bioactivity as percent of response to P04722 77-93 QE85 [1]: 19%; Activity after rye and wheat challenge (PBMC of coeliac patients): showed activity in both rye and wheat
370: Table 23 20mer, SEQ ID NO:476 (PQQQFLQPQQPFPQQPQQPY) [Peptide 370] | dominant | 11 (5) % |  | 
A-gliadin 57-73 P65: non-bioactive variant, SEQ ID NO:780 (QLQPFPQPPLPYPQPQS) |  |  |  | Bioactivity % of unmodified A-gliadin 57-73 QE65 (G) ([2]; 50 mcg/ml, PBMC from 8 subjects, blank 7.1%, listed as P65): 8%; Mean IFNγ ELISPOT response relative to the immunodominant epitope (Glu65) ([2]; A-gliadin 57-73 with the named amino acid at position 65, 50 μg/ml, 3 subjects, day 6, listed as Proline): 2%; % agonist. (agonist activity compared to A-gliadin 57-73 QE65) ([2]; Table 9, 50 mcg/ml): 8%; % Inhibit. of A-gliadin 57-73 QE65 interferon gamma ELISPOT response [3]: 15%; IFNγ ELISpot response, Day 0, 1 week gluten free diet ([4]; GFD: 1 week): 2 IFNγ specific spots/million PP; IFNγ ELISpot response, Day 6 of gluten challenge, 1 week gluten free diet ([4]; GFD: 1 week): 0 IFNγ specific spots/million PP; IFNγ ELISpot response, Day 0, 2 weeks gluten free diet ([4]; GFD: 2 weeks): 1 IFNγ specific spots/million PP; IFNγ ELISpot response, Day 6 of gluten challenge, 2 weeks gluten free diet ([4]; GFD: 2 weeks): 0 IFNγ specific spots/million PP; IFNγ ELISpot response, Day 0, 8 weeks gluten free diet ([4]; GFD: 8 weeks): 1 IFNγ specific spots/million PP; IFNγ ELISpot response, Day 6 of gluten challenge, 8 weeks gluten free diet ([4]; GFD: 8 weeks): 0 IFNγ specific spots/million PP; IFNγ ELISpot response, Day 0, no gluten free diet ([4]; GFD: none): 1 IFNγ specific spots/million PP; IFNγ ELISpot response, Day 6 of gluten challenge, no gluten free diet ([4]; GFD: none): 0 IFNγ specific spots/million PP
636: Table 23 20mer, homologue of 626, SEQ ID NO:742 (PQQPQQPFPQPQQPIPVQPQ) [Peptide 636] |  | 51 (20) % | 51 (10) % | Bioactivity as percent of response to P04722 77-93 QE85 [1]: 51%; Activity after rye and wheat challenge (PBMC of coeliac patients): showed activity in both rye and wheat
91: Table 23 20mer, SEQ ID NO:197 (PQPFPPQLPYPQPQLPYPQP) [Peptide 91] |  | 89 (12) % | 89 (12) % | Dominance among individual peptide responses, wheat (PBMC of coeliac patients): dominant
371: Table 23 20mer, SEQ ID NO:477 (PQQQFIQPQQPFPQQPQQTY) [Peptide 371] | dominant | 22 (10) % | 22 (10) % | 
90: Table 23 20mer, SEQ ID NO:196 (PQLPYPQPQLPYPQPQPFRP) [Peptide 90] |  | 87 (16) % | 87 (16) % | Dominance among individual peptide responses, wheat (PBMC of coeliac patients): dominant
